Test results: US20230391772A1, “METHODS AND COMPOSITIONS FOR TARGETED PROTEIN DEGRADATION” (Ranok Therapeutics (Hangzhou) Co. Ltd., priority 2020, published 2023)

Assays:
HSP90a protein = target: T1, HSP90a protein (Homo sapiens, UniProt P07900); experiment: HSP90α-binding fluorescent polarization (FP) assay, BODIPY-labeled RNK04010 probe; settings: FP competition with RNK04010 (BODIPY-labeled), 5 nM, 300 min at 25° C.
T1 construct: purchased BPS Bioscience 50298
Outline: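 Displacement of a 5 nM fluorescent HSP90 ligand from the N-terminal HSP90a domain by FP. Incubation ran at 25° C: 120 min for the FITC-geldanamycin tracer, 300 min for the BODIPY-conjugated triazolone RNK04010.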

[1] = tested on: NCI-H358 human non-small cell lung cancer; experiment: NCI-H358 CCK-8 proliferation assay; assay type: cell-based; settings: NCI-H358 cells, 72 hr
Outline: (§1)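 Percent inhibition derived from CCK-8 optical signal, normalised between DMSO-only cells (0%) and cell-free medium containing DMSO as background. Cells: MIA PaCa-2 carrying 2 KRAS(G12C) copies; NCI-H358, NCI-H23 carrying 1 copy apiece. Concentrations spanned 1.02 nM–20 μM in threefold increments.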

[2] = tested on: MIA PaCa-2 human pancreatic carcinoma; experiment: MIA PaCa-2 CCK-8 proliferation assay; assay type: cell-based; settings: Homo sapiens, MIA PaCa-2, 72 h, MIA PaCa-2 cells
Outline: as §1

Row | IC50 (HSP90a protein) [µM] | EC50 [1] [µM] | EC50 [2] [µM] | Structure (SMILES)
1 | > 1 | > 1 | > 1 | C=CC(=O)N1CCN(c2nc(NCCC(=O)N3CCC(Cc4ccc(CN(C)Cc5ccc(-n6c(C(=O)NCC(F)(F)F)nnc6-c6cc(C(C)C)c(O)cc6O)cc5)cc4)CC3)nc3c2CCN(c2cccc4ccccc24)C3)C[C@H]1CC#N [Compound 110, (R)-4-(4-(((4-((1-(3-((4-(4-acryloyl-3-(cyanomethyl)piperazin-1-yl)-7-(naphthalen-1-yl)-5,6,7,8-tetrahydropyrido[3,4-d]pyrimidin-2-yl)amino)propanoyl)piperidin-4-yl)methyl)benzyl)(methyl)amino)methyl)phenyl)-5-(2,4-dihydroxy-5-isopropylphenyl)-N-(2,2,2-trifluoroethyl)-4H-1,2,4-triazole-3-carboxamide, trifluoroacetic acid]
2 | 0.1 to 1 | > 1 | – | CCc1cc(-c2nnc(O)n2-c2ccc(CNC(=O)CCNc3nc4c(c(N5CCN(C(C)=O)CC5)n3)CCN(c3cc(O)cc5ccccc35)C4)cc2)c(O)cc1O [Compound 48, 3-((4-(4-acetylpiperazin-1-yl)-7-(3-hydroxynaphthalen-1-yl)-5,6,7,8-tetrahydropyrido[3,4-d]pyrimidin-2-yl)amino)-N-(4-(3-(5-ethyl-2,4-dihydroxyphenyl)-5-hydroxy-4H-1,2,4-triazol-4-yl)benzyl)propanamide, trifluoroacetic acid]
3 | < 0.1 | > 1 | – | C=CC(=O)N1CCN(c2nc(NCCC(=O)NCC3CCN(C(=O)C4CCN(Cc5ccc(-n6c(O)nnc6-c6cc(C(C)C)c(O)cc6O)cc5)CC4)CC3)nc3c2CCN(c2cccc4cccc(Cl)c24)C3)C[C@H]1CC#N [Compound 102, (R)-3-((4-(4-acryloyl-3-(cyanomethyl)piperazin-1-yl)-7-(8-chloronaphthalen-1-yl)-5,6,7,8-tetrahydropyrido[3,4-d]pyrimidin-2-yl)amino)-N-((1-(1-(4-(3-(2,4-dihydroxy-5-isopropylphenyl)-5-hydroxy-4H-1,2,4-triazol-4-yl)benzyl)piperidine-4-carbonyl)piperidin-4-yl)methyl)propanamide, trifluoroacetic acid]
4 | 0.1 to 1 | 0.1 to 1 | – | CCC(=O)N1CCN(c2nc(NCCC(=O)N3CCC(CN4CCN(Cc5ccc(-n6c(C(=O)NC(CC)CC)nnc6-c6cc(CC)c(O)cc6O)cc5)CC4)CC3)nc3c2CCN(c2cc(O)cc4ccccc24)C3)CC1 [Compound 117, 5-(5-ethyl-2,4-dihydroxyphenyl)-4-(4-((4-((1-(3-((7-(3-hydroxynaphthalen-1-yl)-4-(4-propionylpiperazin-1-yl)-5,6,7,8-tetrahydropyrido[3,4-d]pyrimidin-2-yl)amino)propanoyl)piperidin-4-yl)methyl)piperazin-1-yl)methyl)phenyl)-N-(pentan-3-yl)-4H-1,2,4-triazole-3-carboxamide, trifluoroacetic acid]
5 | > 1 | > 1 | – | C=CC(=O)N1CCN(c2nc(NCCC(=O)NCc3ccc(-n4c(O)nnc4-c4cc(CC)c(O)cc4O)cc3F)nc3c2CCN(c2cccc4cccc(Cl)c24)C3)C[C@H]1CC#N [Compound 83, (R)-3-((4-(4-acryloyl-3-(cyanomethyl)piperazin-1-yl)-7-(8-chloronaphthalen-1-yl)-5,6,7,8-tetrahydropyrido[3,4-d]pyrimidin-2-yl)amino)-N-(4-(3-(5-ethyl-2,4-dihydroxyphenyl)-5-hydroxy-4H-1,2,4-triazol-4-yl)-2-fluorobenzyl)propanamide, trifluoroacetic acid]
6 | 0.1 to 1 | 0.1 to 1 | – | C=CC(=O)N1CCN(c2nc(NCCC(=O)NCc3ccc(CN4CCC(Cc5ccc(-n6c(C(=O)NCC(F)(F)F)nnc6-c6cc(CC)c(O)cc6O)cc5)CC4)cc3)nc3c2CCN(c2cc(O)cc4ccccc24)C3)CC1 [Compound 125, 4-(4-((1-(4-((3-((4-(4-acryloylpiperazin-1-yl)-7-(3-hydroxynaphthalen-1-yl)-5,6,7,8-tetrahydropyrido[3,4-d]pyrimidin-2-yl)amino)propanamido)methyl)benzyl)piperidin-4-yl)methyl)phenyl)-5-(5-ethyl-2,4-dihydroxyphenyl)-N-(2,2,2-trifluoroethyl)-4H-1,2,4-triazole-3-carboxamide, trifluoroacetic acid]
7 | < 0.1 | > 1 | – | C=CC(=O)N1CCN(c2nc(NCCC(=O)NCCOCCOc3ccc(-n4c(O)nnc4-c4cc(C(C)C)c(O)cc4O)cc3)nc3c2CCN(c2cc(O)cc4ccccc24)C3)CC1 [Compound 72, trifluoroacetic acid]
8 | > 1 | > 1 | – | CCC(=O)N1CCN(c2nc(NCCC(=O)NCc3ccc(-n4c(O)nnc4-c4cc(CC)c(O)cc4O)cc3F)nc3c2CCN(c2cc(O)cc4ccccc24)C3)CC1 [Compound 34, N-(4-(3-(5-ethyl-2,4-dihydroxyphenyl)-5-hydroxy-4H-1,2,4-triazol-4-yl)-2-fluorobenzyl)-3-((7-(3-hydroxynaphthalen-1-yl)-4-(4-propionylpiperazin-1-yl)-5,6,7,8-tetrahydropyrido[3,4-d]pyrimidin-2-yl)amino)propanamide, trifluoroacetic acid]
9 | 0.1 to 1 | > 1 | – | C=CC(=O)N1CCN(c2nc(NCCC(=O)NCc3ccc(-n4c(O)nnc4-c4cc(C(C)C)c(O)cc4O)cc3C(F)(F)F)nc3c2CCN(c2cc(O)cc4ccccc24)C3)CC1 [Compound 36, 3-((4-(4-acryloylpiperazin-1-yl)-7-(3-hydroxynaphthalen-1-yl)-5,6,7,8-tetrahydropyrido[3,4-d]pyrimidin-2-yl)amino)-N-(4-(3-(2,4-dihydroxy-5-isopropylphenyl)-5-hydroxy-4H-1,2,4-triazol-4-yl)-2-(trifluoromethyl)benzyl)propanamide, trifluoroacetic acid]
10 | 0.1 to 1 | > 1 | – | C=CC(=O)N1CCN(c2nc(NCCC(=O)N3CCN(c4ccc(-n5c(O)nnc5-c5cc(C(C)C)c(O)cc5O)cc4)CC3)nc3c2CCN(c2cccc4cccc(Cl)c24)C3)C[C@H]1CC#N [Compound 88, (R)-2-(1-acryloyl-4-(7-(8-chloronaphthalen-1-yl)-2-((3-(4-(4-(3-(2,4-dihydroxy-5-isopropylphenyl)-5-hydroxy-4H-1,2,4-triazol-4-yl)phenyl)piperazin-1-yl)-3-oxopropyl)amino)-5,6,7,8-tetrahydropyrido[3,4-d]pyrimidin-4-yl)piperazin-2-yl)acetonitrile, trifluoroacetic acid]
11 | > 1 | > 1 | – | C=CC(=O)N1CCN(c2nc(NCCC(=O)NCc3ccc(-n4c(O)nnc4-c4cc(CC)c(O)cc4O)cc3C(F)(F)F)nc3c2CCN(c2cc(O)cc4ccccc24)C3)CC1 [Compound 39, 3-((4-(4-acryloylpiperazin-1-yl)-7-(3-hydroxynaphthalen-1-yl)-5,6,7,8-tetrahydropyrido[3,4-d]pyrimidin-2-yl)amino)-N-(4-(3-(5-ethyl-2,4-dihydroxyphenyl)-5-hydroxy-4H-1,2,4-triazol-4-yl)-2-(trifluoromethyl)benzyl)propanamide, trifluoroacetic acid]
